Test results from the NIST ThermoML archive (doi:10.1016/j.jct.2015.08.014).
± gives the expanded uncertainty stated by the source.

Assay: xn = mol fraction of the nth substance listed
Conditions: 100 kPa, Liquid; for electrical conductivity: Alternating current cell with electrodes; for mass density: Vibrating tube method; for viscosity: Capillary tube (Ostwald / Ubbelohde) method

CCCC[N+]1(C)CCCC1.N#CN=C=[N-] [1-butyl-1-methylpyrrolidinium dicyanamide] + O=C1CCCO1
Conditions	electrical conductivity [S/m]
313.15 K, Frequency=0.00694444 MHz, x1 = 0.4985	2.88 ± 0.029
313.15 K, Frequency=0.00694444 MHz, x1 = 0.6954	2.43 ± 0.025
313.15 K, Frequency=0.00694444 MHz, x1 = 0.9013	2.09 ± 0.021
313.15 K, Frequency=0.00694444 MHz, x1 = 1	2 ± 0.02
313.15 K, Frequency=0.0075 MHz, x1 = 0.0463	1.79 ± 0.032
313.15 K, Frequency=0.0075 MHz, x1 = 0.0987	2.73 ± 0.034
313.15 K, Frequency=0.0075 MHz, x1 = 0.1449	3.13 ± 0.033
313.15 K, Frequency=0.0075 MHz, x1 = 0.1859	3.37 ± 0.034
313.15 K, Frequency=0.0075 MHz, x1 = 0.2493	3.36 ± 0.034
313.15 K, Frequency=0.0075 MHz, x1 = 0.3029	3.321 ± 0.033
313.15 K, Frequency=0.0075 MHz, x1 = 0.3845	3.16 ± 0.032
313.15 K, Frequency=0.0075 MHz, x1 = 0.4985	2.88 ± 0.029
313.15 K, Frequency=0.0075 MHz, x1 = 0.6954	2.43 ± 0.025
313.15 K, Frequency=0.0075 MHz, x1 = 0.9013	2.09 ± 0.021
313.15 K, Frequency=0.0075 MHz, x1 = 1	2 ± 0.02
313.15 K, Frequency=0.008 MHz, x1 = 0.0463	1.79 ± 0.032
313.15 K, Frequency=0.008 MHz, x1 = 0.0987	2.73 ± 0.034
313.15 K, Frequency=0.008 MHz, x1 = 0.1449	3.13 ± 0.033
313.15 K, Frequency=0.008 MHz, x1 = 0.1859	3.37 ± 0.034
313.15 K, Frequency=0.008 MHz, x1 = 0.2493	3.36 ± 0.034
313.15 K, Frequency=0.008 MHz, x1 = 0.3029	3.321 ± 0.033
313.15 K, Frequency=0.008 MHz, x1 = 0.3845	3.16 ± 0.032
313.15 K, Frequency=0.008 MHz, x1 = 0.4985	2.88 ± 0.029
313.15 K, Frequency=0.008 MHz, x1 = 0.6954	2.43 ± 0.025
313.15 K, Frequency=0.008 MHz, x1 = 0.9013	2.09 ± 0.021
313.15 K, Frequency=0.008 MHz, x1 = 1	2 ± 0.02
313.15 K, Frequency=0.00857143 MHz, x1 = 0.0463	1.79 ± 0.032
313.15 K, Frequency=0.00857143 MHz, x1 = 0.0987	2.73 ± 0.034
313.15 K, Frequency=0.00857143 MHz, x1 = 0.1449	3.13 ± 0.033
313.15 K, Frequency=0.00857143 MHz, x1 = 0.1859	3.37 ± 0.034
313.15 K, Frequency=0.00857143 MHz, x1 = 0.2493	3.36 ± 0.034
313.15 K, Frequency=0.00857143 MHz, x1 = 0.3029	3.321 ± 0.033
313.15 K, Frequency=0.00857143 MHz, x1 = 0.3845	3.16 ± 0.032
313.15 K, Frequency=0.00857143 MHz, x1 = 0.4985	2.88 ± 0.029
313.15 K, Frequency=0.00857143 MHz, x1 = 0.6954	2.43 ± 0.025
313.15 K, Frequency=0.00857143 MHz, x1 = 0.9013	2.09 ± 0.021
313.15 K, Frequency=0.00857143 MHz, x1 = 1	2 ± 0.02
313.15 K, Frequency=0.00892857 MHz, x1 = 0.0463	1.79 ± 0.032
313.15 K, Frequency=0.00892857 MHz, x1 = 0.0987	2.73 ± 0.034
313.15 K, Frequency=0.00892857 MHz, x1 = 0.1449	3.13 ± 0.033
313.15 K, Frequency=0.00892857 MHz, x1 = 0.1859	3.37 ± 0.034
313.15 K, Frequency=0.00892857 MHz, x1 = 0.2493	3.36 ± 0.034
313.15 K, Frequency=0.00892857 MHz, x1 = 0.3029	3.321 ± 0.033
313.15 K, Frequency=0.00892857 MHz, x1 = 0.3845	3.16 ± 0.032
313.15 K, Frequency=0.00892857 MHz, x1 = 0.4985	2.88 ± 0.029
313.15 K, Frequency=0.00892857 MHz, x1 = 0.6954	2.43 ± 0.025
313.15 K, Frequency=0.00892857 MHz, x1 = 0.9013	2.09 ± 0.021
313.15 K, Frequency=0.00892857 MHz, x1 = 1	2 ± 0.02
313.15 K, Frequency=0.00961538 MHz, x1 = 0.0463	1.79 ± 0.032
313.15 K, Frequency=0.00961538 MHz, x1 = 0.0987	2.73 ± 0.034
313.15 K, Frequency=0.00961538 MHz, x1 = 0.1449	3.13 ± 0.033
313.15 K, Frequency=0.00961538 MHz, x1 = 0.1859	3.37 ± 0.034
313.15 K, Frequency=0.00961538 MHz, x1 = 0.2493	3.36 ± 0.034
313.15 K, Frequency=0.00961538 MHz, x1 = 0.3029	3.322 ± 0.033
313.15 K, Frequency=0.00961538 MHz, x1 = 0.3845	3.16 ± 0.032
313.15 K, Frequency=0.00961538 MHz, x1 = 0.4985	2.88 ± 0.029
313.15 K, Frequency=0.00961538 MHz, x1 = 0.6954	2.43 ± 0.025
313.15 K, Frequency=0.00961538 MHz, x1 = 0.9013	2.09 ± 0.021
313.15 K, Frequency=0.00961538 MHz, x1 = 1	2 ± 0.02
313.15 K, Frequency=0.01 MHz, x1 = 0.0463	1.79 ± 0.032
313.15 K, Frequency=0.01 MHz, x1 = 0.0987	2.73 ± 0.034
313.15 K, Frequency=0.01 MHz, x1 = 0.1449	3.13 ± 0.033
313.15 K, Frequency=0.01 MHz, x1 = 0.1859	3.37 ± 0.034
313.15 K, Frequency=0.01 MHz, x1 = 0.2493	3.36 ± 0.034
313.15 K, Frequency=0.01 MHz, x1 = 0.3029	3.322 ± 0.033
313.15 K, Frequency=0.01 MHz, x1 = 0.3845	3.16 ± 0.032
313.15 K, Frequency=0.01 MHz, x1 = 0.4985	2.88 ± 0.029
313.15 K, Frequency=0.01 MHz, x1 = 0.6954	2.43 ± 0.025
313.15 K, Frequency=0.01 MHz, x1 = 0.9013	2.09 ± 0.021
313.15 K, Frequency=0.01 MHz, x1 = 1	2 ± 0.02
323.15 K, Frequency=0.0005 MHz, x1 = 0.0463	1.99 ± 0.036
323.15 K, Frequency=0.0005 MHz, x1 = 0.0987	3.06 ± 0.039
323.15 K, Frequency=0.0005 MHz, x1 = 0.1449	3.56 ± 0.038
323.15 K, Frequency=0.0005 MHz, x1 = 0.1859	3.816 ± 0.038
323.15 K, Frequency=0.0005 MHz, x1 = 0.2493	3.88 ± 0.039
323.15 K, Frequency=0.0005 MHz, x1 = 0.3029	3.85 ± 0.039
323.15 K, Frequency=0.0005 MHz, x1 = 0.3845	3.726 ± 0.037
323.15 K, Frequency=0.0005 MHz, x1 = 0.4985	3.45 ± 0.035
323.15 K, Frequency=0.0005 MHz, x1 = 0.6954	2.99 ± 0.03
323.15 K, Frequency=0.0005 MHz, x1 = 0.9013	2.622 ± 0.026
323.15 K, Frequency=0.0005 MHz, x1 = 1	2.525 ± 0.025
323.15 K, Frequency=0.001 MHz, x1 = 0.0463	2 ± 0.036

Conditions	electrical conductivity, 323.15 K [S/m]	mass density, 313.15 K [kg/m3]	viscosity, 323.15 K [mPa·s]
x1 = 0.0463	2.01 ± 0.037	–	–
x1 = 0.0987	3.08 ± 0.039	1090.51 ± 8.7	1.87 ± 0.04
x1 = 0.1449	3.57 ± 0.038	–	–
x1 = 0.1859	3.85 ± 0.039	1075.67 ± 8.6	2.58 ± 0.06
x1 = 0.2493	3.89 ± 0.039	–	–
x1 = 0.3029	3.88 ± 0.039	1059.04 ± 8.5	3.77 ± 0.08
x1 = 0.3845	3.74 ± 0.038	–	–
x1 = 0.4985	3.46 ± 0.035	1037.83 ± 8.3	6.36 ± 0.14
x1 = 0.6954	2.99 ± 0.03	1022.16 ± 8.2	9.69 ± 0.22
x1 = 0.9013	2.633 ± 0.026	1009.87 ± 8.1	13.92 ± 0.32
x1 = 1	2.529 ± 0.025	1005.06 ± 8.1	16.15 ± 0.37
